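Step 1: Grow cells in 96-well plates. Step 2: Expose to compound for 48 hours at 5 concentrations. Step 3: Interpolate endpoints linearly; if unreached, use highest concentration. Here, GI50 denotes the concentration required for 50% inhibition of growth.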 Activity calls are given as the source filed them. Rule as the data show it: active = GI50 up to about 1.1 µM and inactive = higher.
Tests used:
Assay in all cases: NCI tumour cell line growth inhibition, 48 h
A498 = test system: A498
SNB-75 = test system: SNB-75
LOX IMVI = test system: LOX IMVI
OVCAR-4 = test system: OVCAR-4
MOLT-4 = test system: MOLT-4
K562 = test system: K562
SK-MEL-5 = test system: SK-MEL-5
NCI-H522 = test system: NCI-H522
KM12 = test system: KM12
RPMI-8226 = test system: RPMI-8226
SK-OV-3 = test system: SK-OV-3
NCI-H226 = test system: NCI-H226
NCI-H23 = test system: NCI-H23
HCT-15 = test system: HCT-15
Malme-3M = test system: Malme-3M
HOP-92 = test system: HOP-92
RXF 393 = test system: RXF 393
NCI-H460 = test system: NCI-H460

Structure (SMILES)	GI50 (A498)	GI50 (SNB-75)	GI50 (LOX IMVI)	GI50 (OVCAR-4)	GI50 (MOLT-4)	GI50 (K562)	GI50 (SK-MEL-5)	GI50 (NCI-H522)	GI50 (KM12)	GI50 (RPMI-8226)	GI50 (SK-OV-3)	GI50 (NCI-H226)	GI50 (NCI-H23)	GI50 (HCT-15) [µM]	GI50 (Malme-3M)	GI50 (HOP-92)	GI50 (RXF 393)	GI50 (NCI-H460)
COc1ccccc1NC(=O)CC(=O)NNCC(=O)Nc1nnc(-c2ccccc2)o1	> 100 µM (inactive)	> 100 µM (inactive)	> 100 µM (inactive)	> 100 µM (inactive)	> 100 µM (inactive)	> 100 µM (inactive)	> 100 µM (inactive)	> 100 µM (inactive)	> 100 µM (inactive)	> 100 µM (inactive)	> 100 µM (inactive)	> 100 µM (inactive)	> 100 µM (inactive)	> 100				
CCN(CC)c1ccc(/N=C2/C=CC(=C(C#N)C#N)c3ccccc32)c(C)c1		1.33 µM (inactive)	1.72 µM (inactive)	1.88 µM (inactive)	1.96 µM (inactive)	1.56 µM (inactive)	1.58 µM (inactive)			1.38 µM (inactive)	3.83 µM (inactive)		1.58 µM (inactive)	2.15	1.87 µM (inactive)	0.324 µM (active)	1.08 µM (active)	2.55 µM (inactive)
Nc1ccc(C(=O)N/C(=C\c2cccc([N+](=O)[O-])c2)c2nc3cc(Cl)ccc3[nH]2)cc1				50.4 µM (inactive)	> 100 µM (inactive)	> 100 µM (inactive)	> 100 µM (inactive)	> 100 µM (inactive)	> 100 µM (inactive)		> 100 µM (inactive)		> 100 µM (inactive)	> 100	> 100 µM (inactive)	24.4 µM (inactive)	> 100 µM (inactive)	
C=CCN(N=O)C(=O)N(CCCC(NC(C)=O)C(=O)NCc1ccccc1)Cc1ccccc1 (stereo not given)	99.3 µM (inactive)	39 µM (inactive)	46.9 µM (inactive)	36.1 µM (inactive)	16.9 µM (inactive)	37 µM (inactive)	31.1 µM (inactive)	21.4 µM (inactive)	42.4 µM (inactive)	18.2 µM (inactive)	> 100 µM (inactive)		> 100 µM (inactive)	73.8	98.4 µM (inactive)		42.2 µM (inactive)	55.8 µM (inactive)
CC1(C)OC(COCCOCCCCCO)C(COCCOCCCCCO)O1 (stereo not given)	> 100 µM (inactive)	> 100 µM (inactive)	> 100 µM (inactive)	> 100 µM (inactive)	> 100 µM (inactive)	> 100 µM (inactive)	> 100 µM (inactive)	> 100 µM (inactive)	> 100 µM (inactive)	> 100 µM (inactive)	> 100 µM (inactive)	> 100 µM (inactive)	> 100 µM (inactive)	> 100	> 100 µM (inactive)		> 100 µM (inactive)	> 100 µM (inactive)
Cc1ccccc1NC(=O)Cc1nc2ccccc2s1	19.2 µM (inactive)	61 µM (inactive)	16.7 µM (inactive)	17.3 µM (inactive)	17.9 µM (inactive)	18.3 µM (inactive)	51.2 µM (inactive)	15.3 µM (inactive)	16.7 µM (inactive)		24.4 µM (inactive)	18.9 µM (inactive)	14.7 µM (inactive)		15.8 µM (inactive)		18.9 µM (inactive)	19.4 µM (inactive)
CCOc1ccc(/N=C/c2cccc3cccnc23)cc1	> 100 µM (inactive)	> 100 µM (inactive)		> 100 µM (inactive)	45.3 µM (inactive)	20 µM (inactive)	> 100 µM (inactive)		39.8 µM (inactive)	30.3 µM (inactive)	> 100 µM (inactive)	> 100 µM (inactive)	> 100 µM (inactive)	38.2	> 100 µM (inactive)	> 100 µM (inactive)	> 100 µM (inactive)	> 100 µM (inactive)
Cc1cc2c(c(C(=O)O)c1C)-c1cccc(Cl)c1C2=O		> 100 µM (inactive)	> 100 µM (inactive)	> 100 µM (inactive)	> 100 µM (inactive)	> 100 µM (inactive)	> 100 µM (inactive)	> 100 µM (inactive)	> 100 µM (inactive)	> 100 µM (inactive)	> 100 µM (inactive)	> 100 µM (inactive)	> 100 µM (inactive)	> 100	> 100 µM (inactive)		> 100 µM (inactive)	> 100 µM (inactive)
COc1ccc2c(c1)[n+]([O-])c(-c1ccc(Br)cc1)c(N)[n+]2[O-]	> 100 µM (inactive)	63.1 µM (inactive)		35.6 µM (inactive)	36.8 µM (inactive)	39.2 µM (inactive)	17.7 µM (inactive)	15.6 µM (inactive)	58.5 µM (inactive)		92.7 µM (inactive)	66.5 µM (inactive)	22.4 µM (inactive)		25.2 µM (inactive)	> 100 µM (inactive)	34.6 µM (inactive)	36.3 µM (inactive)
[Zn+2][N+]12CCN3CCN4CCN(CC1)[PH]432 (stereo not given)	> 100 µM (inactive)	> 100 µM (inactive)	> 100 µM (inactive)	> 100 µM (inactive)	> 100 µM (inactive)	> 100 µM (inactive)	> 100 µM (inactive)	> 100 µM (inactive)	> 100 µM (inactive)	> 100 µM (inactive)	> 100 µM (inactive)	> 100 µM (inactive)	> 100 µM (inactive)	> 100	> 100 µM (inactive)		> 100 µM (inactive)	> 100 µM (inactive)
C=CCN(N=O)C(=O)N(CCC)CCCC(NC(C)=O)C(=O)NCc1ccccc1 (stereo not given)	> 100 µM (inactive)	> 100 µM (inactive)	> 100 µM (inactive)	> 100 µM (inactive)	> 100 µM (inactive)	> 100 µM (inactive)	> 100 µM (inactive)	> 100 µM (inactive)	> 100 µM (inactive)	> 100 µM (inactive)	> 100 µM (inactive)		> 100 µM (inactive)	> 100	> 100 µM (inactive)		> 100 µM (inactive)	> 100 µM (inactive)
COC(=O)/C(=N/NC(=O)C[N+](C)(C)C)C(C(=O)OC)C(=O)C(=O)Nc1ccc(F)cc1 (stereo not given)	63.7 µM (inactive)	> 100 µM (inactive)	> 100 µM (inactive)	> 100 µM (inactive)	> 100 µM (inactive)	> 100 µM (inactive)	> 100 µM (inactive)	> 100 µM (inactive)	> 100 µM (inactive)	> 100 µM (inactive)	> 100 µM (inactive)	> 100 µM (inactive)	> 100 µM (inactive)	> 100	> 100 µM (inactive)		> 100 µM (inactive)	> 100 µM (inactive)
Cc1cc(Cl)ccc1NC(=O)CCCC(=O)C1CCC/C1=N\NC(=O)CC#N (stereo not given)	> 100 µM (inactive)	> 100 µM (inactive)		> 100 µM (inactive)	> 100 µM (inactive)	> 100 µM (inactive)	> 100 µM (inactive)	> 100 µM (inactive)	> 100 µM (inactive)	75.3 µM (inactive)	> 100 µM (inactive)	> 100 µM (inactive)	> 100 µM (inactive)	> 100	> 100 µM (inactive)	> 100 µM (inactive)		> 100 µM (inactive)
COC(=O)c1ccc(C(=O)OC)c2nc3cc(C)ccc3nc12	> 100 µM (inactive)	> 100 µM (inactive)	> 100 µM (inactive)	> 100 µM (inactive)	> 100 µM (inactive)	> 100 µM (inactive)	> 100 µM (inactive)		> 100 µM (inactive)	> 100 µM (inactive)	> 100 µM (inactive)	51.1 µM (inactive)	> 100 µM (inactive)	> 100	> 100 µM (inactive)	> 100 µM (inactive)		> 100 µM (inactive)
CC1CC(c2ccccc2)=Nc2ccccc2S1(=O)=O (stereo not given)	14.8 µM (inactive)	19.2 µM (inactive)	17.3 µM (inactive)	19 µM (inactive)	16.8 µM (inactive)	19.4 µM (inactive)	17.9 µM (inactive)	17.3 µM (inactive)	16.3 µM (inactive)	2.16 µM (inactive)	19.7 µM (inactive)		16.6 µM (inactive)	24.1	17.9 µM (inactive)	27.9 µM (inactive)	15.3 µM (inactive)	16.3 µM (inactive)
CN(C)CCNC(=O)c1ccccc1Nc1c(Cl)cccc1Cl		2.07 µM (inactive)	12.8 µM (inactive)	14.6 µM (inactive)	13.1 µM (inactive)	13.4 µM (inactive)	2.89 µM (inactive)			11.9 µM (inactive)	13.7 µM (inactive)	11.5 µM (inactive)	17.1 µM (inactive)	14.8			1.69 µM (inactive)	
CCCCCC(=O)OCCOCCOCCOCCOCCOCc1ccccc1	> 100 µM (inactive)		> 100 µM (inactive)	> 100 µM (inactive)			> 100 µM (inactive)		> 100 µM (inactive)			> 100 µM (inactive)	> 100 µM (inactive)	> 100	> 100 µM (inactive)	> 100 µM (inactive)	> 100 µM (inactive)	> 100 µM (inactive)
CC(C)N1C(C)[C@@H](c2ccccc2)O[P@]1(=O)CC1=CCCCC1 (stereo not given in full)	> 100 µM (inactive)	> 100 µM (inactive)	74.1 µM (inactive)		44.3 µM (inactive)	49.3 µM (inactive)	45.2 µM (inactive)	97.5 µM (inactive)	> 100 µM (inactive)	62.8 µM (inactive)	> 100 µM (inactive)	> 100 µM (inactive)	82.8 µM (inactive)	> 100	> 100 µM (inactive)	42.2 µM (inactive)	> 100 µM (inactive)	87.1 µM (inactive)

From ChEMBL document CHEMBL1201862, “PubChem BioAssay data set” (2004)
